We go through 1 molecule from ChEMBL document CHEMBL1150712, “Plant anticancer agents, XLIII. (E,E)-7, 12-dioxo-octadeca-8, 10-dien-1-oic acid (ostopanic acid), a cytotoxic fatty acid from Ostodes Paniculata” (1987).

Values after ≈ are worked out from the molar mass of the structure shown.

The assay has as its system P388. The assay is described as follows: Cytotoxicity against mouse P388 cells. Type of assay: functional. The following applies: read-out: ED50 (the source's name).

Regarding `CCCCCCC(=O)/C=C/C=C/C(=O)CCCCCC(=O)O` [OSTOPANIC ACID], the EC50 amounted to 1.5 mg/L (≈ 4.86 µM).
